Results from ChEMBL document CHEMBL1255415, “In vitro activity of penem-1 in combination with beta-lactams against blaKPC-possessing Klebsiella pneumoniae isolates” (2010).
In brackets after ≈: the same amount, converted by molar mass. Activity calls are given as the source filed them. The rule behind the calls is not given here.

Assays:
Klebsiella pneumoniae [1] = assay: Antimicrobial activity against blaKPC-possessing Klebsiella pneumoniae isolates by agar dilution method; format: functional
Klebsiella pneumoniae [2] = assay: Antimicrobial activity against blaKPC-possessing Klebsiella pneumoniae isolates in presence of 4 ug/ml by agar dilution method; format: functional
Klebsiella pneumoniae [3] = assay: Antimicrobial activity against blaKPC-possessing Klebsiella pneumoniae isolates assessed as susceptible isolates by agar dilution method; format: functional
Klebsiella pneumoniae [4] = assay: Antimicrobial activity against blaKPC-possessing Klebsiella pneumoniae isolates assessed as susceptible isolates in presence of 4 ug/ml by agar dilution method; format: functional
Klebsiella pneumoniae [5] = assay: Inhibition of Beta-lactamase KPC-2 in Klebsiella pneumoniae isolates assessed as reduction in antimicrobial MIC of beta-lactams by agar dilution method relative to untreated control

Structure (SMILES)	MIC50 (Klebsiella pneumoniae [1]) [µg/mL]	MIC90 (Klebsiella pneumoniae [1]) [µg/mL]	MIC50 (Klebsiella pneumoniae [2]) [µg/mL]	MIC90 (Klebsiella pneumoniae [2]) [µg/mL]	Activity (Klebsiella pneumoniae [3]) [%]	Activity (Klebsiella pneumoniae [4]) [%]	inhibition (Klebsiella pneumoniae [5])	Reduction in beta-lactam MIC (qualitative call) (Klebsiella pneumoniae [5])
C[C@H]1[C@H](NC(=O)/C(=N\OC(C)(C)C(=O)O)c2csc(N)n2)C(=O)N1S(=O)(=O)O [AZTREONAM]	≥ 512	≥ 512	16	128	0	14.3	Active	
CO/N=C(\C(=O)N[C@@H]1C(=O)N2C(C(=O)[O-])=C(C[N+]3(C)CCCC3)CS[C@H]12)c1csc(N)n1 [CEFEPIME]	32 (≈ 66.6 µM)	128 (≈ 266 µM)	2	16	7.1	88.1		Active
CO/N=C(\C(=O)N[C@@H]1C(=O)N2C(C(=O)O)=C(COC(C)=O)CS[C@H]12)c1csc(N)n1 [CEFOTAXIME]	64 (≈ 141 µM)	≥ 512	2	4	0	38.1		Active
CCN1CCN(C(=O)N[C@@H](C(=O)N[C@@H]2C(=O)N3[C@@H]2SC(C)(C)[C@@H]3C(=O)O)c2ccccc2)C(=O)C1=O [PIPERACILLIN]	≥ 512	≥ 512	64	128	0	16.7		Active
